Reference: patent US20050209278A1, “Piperidinyl- and piperazinyl-sulfonylmethyl hydroxamic acids and their use as protease inhibitors” (priority 2002, published 2005)

How the values were obtained:
Format in all cases: biochemical
[1] = target: T1, MMP-2 (Homo sapiens, UniProt P08253); assay: In vitro MMP inhibition, Ki determination (fluorogenic substrate II); conditions: read-out: MMP-2 Ki
T1 construct: made in house; host or cells: MMP-2-transfected p2AHT2 cells
T1 sequence (P08253 110-660): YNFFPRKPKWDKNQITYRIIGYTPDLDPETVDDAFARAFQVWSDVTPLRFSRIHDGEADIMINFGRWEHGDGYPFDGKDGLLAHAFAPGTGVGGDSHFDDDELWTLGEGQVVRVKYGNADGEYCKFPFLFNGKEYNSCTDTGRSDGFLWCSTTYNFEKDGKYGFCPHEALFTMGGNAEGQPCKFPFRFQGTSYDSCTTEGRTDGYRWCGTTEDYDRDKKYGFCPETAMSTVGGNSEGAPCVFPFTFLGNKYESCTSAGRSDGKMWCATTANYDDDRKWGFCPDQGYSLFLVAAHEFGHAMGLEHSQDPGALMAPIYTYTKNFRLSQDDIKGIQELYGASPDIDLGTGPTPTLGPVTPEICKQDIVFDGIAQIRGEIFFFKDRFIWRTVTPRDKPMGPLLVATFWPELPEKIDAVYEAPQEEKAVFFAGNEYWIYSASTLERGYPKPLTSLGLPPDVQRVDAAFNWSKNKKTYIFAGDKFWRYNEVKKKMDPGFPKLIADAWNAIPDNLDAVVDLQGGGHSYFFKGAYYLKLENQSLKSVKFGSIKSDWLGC
Procedure: (§1) Several hydroxamic acids and salts thereof were analyzed in in vitro assays to determine their ability to inhibit the MMP cleavage of peptide substrates. […] and IC50 constants were calculated from the assayed hydroxamic acid-MMP interactions.
(§2) Human recombinant MMP-1, MMP-2, MMP-9, MMP-13, and MMP-14 were used in this assay. All enzymes were prepared in Assignee's laboratories following usual laboratory procedures. Protocols for the preparation and use of these enzymes are available in the scientific literature. See, e.g., Enzyme Nomenclature (Academic Press, San Diego, Calif., 1992) (and the citations therein). See also, Freije et al., “Molecular cloning and expression of collagenase-3, a novel human matrix metalloproteinase produced by breast carcinomas,” J Biol. Chem., 269(24), 16766-16773 (1994).
The MMP-2 proenzyme was purified by gelatin Sepharose chromatography from MMP-2-transfected p2AHT2 cells provided by Dr. Gregory Goldberg of Washington University (St. Louis, Mo.).
(§3) All MMPs were activated using 4-aminophenylmercuric acetate (“APMA”, Sigma Chemical, St. Louis, Mo.) or trypsin. MMP-9 also was activated using human recombinant MMP-3 (purified in Assignee's laboratory following standard cloning and purification techniques).
(§4) Two fluorogenic, methoxycoumarin-containing polypeptide substrates were used in the MMP inhibition assays: [drawing 427] Here, “Dpa” is 3-(2,4-dinitrophenyl)-L-2,3-diaminopropionyl group, and “MCA” is 7-methoxycoumarin-4-yl acetyl. Substrate (I) was purchased from Baychem (Redwood City, Calif.), and substrate II was prepared Assignee's laboratory. Substrate I was used in the IC50 determination assays, while substrate II was used in the Ki determination assays. In the absence of MMP inhibitory activity, either substrate is cleaved at the Gly-Leu peptide bond. This cleavage separates the highly fluorogenic peptide from the 2,4-dinitrophenyl quencher, thus resulting in increase of fluorescent intensity.
(§5) The stock solutions of the assayed hydroxamic acids (or salts thereof) were prepared in 1% dimethyl sulfoxide (DMSO). These stock solutions were diluted in Buffer A (100 mM Tris-HCl, 100 mM NaCl, 10 mM CaCl2, 0.05% polyoxyethylene 23 lauryl ether, pH 7.5) to obtain solutions with different hydroxamic acid concentrations, i.e., assay solutions with different concentrations of the assayed MMP inhibitory compound. The experiment controls contained the same amount of Buffer A/DMSO as the assayed sample, but contained no hydroxamic acid (or salt thereof).
The assays from which the Ki determinations were made were performed as follows. The assayed hydroxamic acid samples were incubated in separate wells of untreated white polystyrene plates (Nunc Nalgene International, Rochester, N.Y.), and analyzed on a Tecan SpectraFlour Plus plate reader. The excitation wavelength was 330 nm, and the emission wavelength—420 nm. All samples (assayed hydroxamic acids and controls) were incubated in separate plate wells at room temperature for 1 hr in the presence of 4 μM of MMP substrate (II). In the absence of MMP inhibitory activity, substrate II was cleaved at the Gly-Leu bond resulting in an increase of relative fluorescence. Inhibition was observed as a reduced rate of this increase in relative fluorescence. The various hydroxamic acids were analyzed using a single low enzyme concentration with a single substrate concentration fixed at or below the Km. This protocol is a modification of method by Knight et al., FEBS Lett., 296(3), 263-266 (1992). Apparent inhibitory constants were determined by non-linear regression of reaction velocity as a function of inhibitor and enzyme concentration using Morrison's equation, as described by Kuzmic, Anal. Biochem. 286, 45-50 (2000). […] Since the substrate concentration was chosen to be at or below the Km, the apparent Ki's from this analysis were reported as Ki's without correction for the influence of substrate.

[2] = target: T2, MMP-13 (Homo sapiens, UniProt P45452); assay: as above; conditions: read-out: MMP-13 Ki
T2 construct: made in house; host or cells: baculovirus / insect cells
Procedure: as §1, §2
The MMP-13 was obtained as a proenzyme from a full-length cDNA clone using baculovirus, as described by V. A. Luckow, “Insect Cell Expression Technology,” Protein Engineering: Principles and Practice, pp. 183-218 (edited by J. L. Cleland et al., Wiley-Liss, Inc., 1996). The expressed proenzyme was first purified over a heparin agarose column, and then over a chelating zinc chloride column. The proenzyme was then activated by APMA for use in the assay. […] See also, O'Reilly et al, Baculovirus Expression Vectors: A Laboratory Manual (W.H. Freeman and Co., New York, N.Y., 1992). See also, King et al., The Baculovirus Expression System: A Laboratory Guide (Chapman & Hall, London, England, 1992).
as §3, §4, §5
The assays from which the Ki determinations were made were performed as follows. The assayed hydroxamic acid samples were incubated in separate wells of untreated white polystyrene plates (Nunc Nalgene International, Rochester, N.Y.), and analyzed on a Tecan SpectraFlour Plus plate reader. The excitation wavelength was 330 nm, and the emission wavelength—420 nm. All samples (assayed hydroxamic acids and controls) were incubated in separate plate wells at room temperature for 1 hr in the presence of 4 μM of MMP substrate (II). In the absence of MMP inhibitory activity, substrate II was cleaved at the Gly-Leu bond resulting in an increase of relative fluorescence. Inhibition was observed as a reduced rate of this increase in relative fluorescence. The various hydroxamic acids were analyzed using a single low enzyme concentration with a single substrate concentration fixed at or below the Km.

[3] = target: T3, MMP-9 (Homo sapiens, UniProt P14780); assay: MMP-9 inhibition (in vitro Ki); conditions: Table 8; read-out: MMP-9 Ki
T3 construct: made in house; host or cells: MMP-9-transfected HT1080 cells (spent media)

[4] = target: T1, MMP-2; assay: MMP-2 inhibition (in vitro Ki); conditions: Table 8; read-out: MMP-2 Ki
[5] = target: T2, MMP-13; assay: MMP-13 inhibition (in vitro Ki); conditions: Table 8; read-out: MMP-13 Ki
[6] = target: T4, MMP-14 (Homo sapiens, UniProt P50281); assay: MMP-14 inhibition (in vitro Ki); conditions: Table 8; read-out: MMP-14 Ki
T4 construct: The catalytic domain enzyme was expressed in E. coli inclusion bodies, solubilized in urea; made in house

[7] = target: T5, MMP-1 (Homo sapiens, UniProt P03956); assay: MMP-1 inhibition (in vitro Ki); conditions: Table 8; read-out: MMP-1 Ki
T5 construct: made in house; host or cells: MMP-1-transfected HT-1080 cells (spent media)
T5 sequence (P03956 100-469): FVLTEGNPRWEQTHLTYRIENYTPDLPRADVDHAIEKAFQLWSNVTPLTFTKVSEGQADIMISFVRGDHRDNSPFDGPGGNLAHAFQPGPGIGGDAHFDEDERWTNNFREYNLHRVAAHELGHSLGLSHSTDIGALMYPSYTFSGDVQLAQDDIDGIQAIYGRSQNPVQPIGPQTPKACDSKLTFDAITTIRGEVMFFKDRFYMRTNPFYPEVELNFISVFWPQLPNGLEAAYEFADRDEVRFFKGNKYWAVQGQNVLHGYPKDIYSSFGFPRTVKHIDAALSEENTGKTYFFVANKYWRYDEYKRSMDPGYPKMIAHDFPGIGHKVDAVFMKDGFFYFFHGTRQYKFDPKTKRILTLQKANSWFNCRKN

T3 sequence (P14780 107-707 limits assumed): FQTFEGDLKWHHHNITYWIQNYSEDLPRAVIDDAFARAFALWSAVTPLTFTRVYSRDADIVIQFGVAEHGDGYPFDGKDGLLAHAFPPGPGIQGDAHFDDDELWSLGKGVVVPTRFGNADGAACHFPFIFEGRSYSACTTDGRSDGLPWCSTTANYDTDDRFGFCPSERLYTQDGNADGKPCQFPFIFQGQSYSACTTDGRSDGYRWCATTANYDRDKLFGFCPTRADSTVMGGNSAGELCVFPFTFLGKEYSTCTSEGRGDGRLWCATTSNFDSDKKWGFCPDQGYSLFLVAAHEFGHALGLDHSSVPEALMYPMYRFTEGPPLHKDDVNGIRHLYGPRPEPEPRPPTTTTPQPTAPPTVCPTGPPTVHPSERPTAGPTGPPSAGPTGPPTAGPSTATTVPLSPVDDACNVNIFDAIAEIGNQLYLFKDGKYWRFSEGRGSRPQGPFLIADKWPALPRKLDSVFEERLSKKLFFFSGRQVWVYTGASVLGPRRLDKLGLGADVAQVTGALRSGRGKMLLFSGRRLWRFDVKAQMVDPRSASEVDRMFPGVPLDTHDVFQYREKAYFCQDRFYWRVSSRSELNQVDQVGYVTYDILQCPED

| Compound | Ki ([1]; value not in parenthesis) [nM] | Ki ([2]; value not in parenthesis) [nM] | Ki ([1]; value outside parentheses) [nM] | Ki ([2]; value outside parentheses) [nM] | Ki [3] [nM] | Ki [4] [nM] | Ki [5] [nM] | Ki [6] [nM] | Ki [7] [nM] |
| --- | --- | --- | --- | --- | --- | --- | --- | --- | --- |
| CCc1ccc(N2CCN(S(=O)(=O)C3(C(=O)NO)CCOCC3)CC2)nc1 [Example 137] | 0.37 | 0.75 |  |  |  |  |  |  |  |
| Cc1cccc(-c2csc(N3CCN(S(=O)(=O)C4(C(=O)NO)CCOCC4)CC3)n2)c1 [Example 414] |  |  | 2660 | 4190 |  |  |  |  |  |
| O=C(NO)C1(S(=O)(=O)N2CCC(CCCCCOCC(F)(F)F)CC2)CCOCC1 [Example A35, 4-{4-[5-(2,2,2-trifluoro-ethoxy)-pentyl]-piperidine-1-sulfonyl}-tetrahydro-pyran-4-carboxylic Acid Hydroxyamide] |  |  |  |  | 2.68 | 2.22 | 0.28 | 1710 | 5290 |
| CCCCCCOC1CCN(S(=O)(=O)C2(C(=O)NO)CCOCC2)CC1 [Example A36, 4-(4-hexyloxy-piperidine-1-sulfonyl)-tetrahydro-pyran-4-carboxylic Acid Hydroxyamide] |  |  |  |  | 0.95 | 3.51 | 5.92 | 1940 | > 10000 |
| CCCCCOC1CCN(S(=O)(=O)C2(C(=O)NO)CCOCC2)CC1 [Example A36A] |  |  |  |  | 2.65 | 6 | 9.36 | 816 | > 10000 |
| CCCCCCCCOC1CCN(S(=O)(=O)C2(C(=O)NO)CCOCC2)CC1 [Example A36B] |  |  |  |  | 1.34 | 1.87 | 0.63 | 1080 | > 10000 |
| CCCCC=CCCOC1CCN(S(=O)(=O)C2(C(=O)NO)CCOCC2)CC1 [Example A36C] |  |  |  |  | 3.41 | 3.93 | 1.22 | 1900 | > 10000 |
| CC(C)CCCOC1CCN(S(=O)(=O)C2(C(=O)NO)CCOCC2)CC1 [Example A36D] |  |  |  |  | 39.1 | 11.9 | 19.9 | 4060 | > 10000 |
